Reference: article PMC6150229, “Simultaneous Determination of Twenty-Five Compounds in Rat Plasma Using Ultra-High Performance Liquid Chromatography-Polarity Switching Tandem Mass Spectrometry and Its Application to a Pharmacokinetic Study” (Molecules : A Journal of Synthetic Chemistry and Natural …, 2017)

Assays:
in vivo = conditions: male, Sprague-Dawley, rat, po, 8 g/kg, oral administration of QSKL, plasma, mean ± SD, n = 6; for AUC(0-t): AUC0–t; for AUC(0-inf): AUC0–∞
[1] = Pharmacokinetic study in sham and myocardial ischemia model rats after a single oral dose of QSKL (UHPLC-psMS/MS of plasma, non-compartmental analysis); conditions: for distribution in rat plasma (quantifiable or not): QSKL-treated plasma samples, sham and model rats, single oral dose 8.0 g/kg; for AUC(0-t) / AUC(0-inf) / Cmax / MRT / Tmax / half-life: male, Sprague-Dawley, rat, plasma, po, 8 g/kg; for AUC(0-inf): AUC0–∞
[2] = model group (MG, myocardial ischemia) rats
[3] = AUC0–t, model group (MG, myocardial ischemia) rats, oral administration of QSKL, mean ± SD, n = 6
[4] = AUC0–t, sham group (SG) rats, oral administration of QSKL, mean ± SD, n = 6
[5] = model group (MG, myocardial ischemia) rats, oral administration of QSKL, mean ± SD, n = 6
[6] = sham group (SG) rats, oral administration of QSKL, mean ± SD, n = 6
[7] = t1/2, model group (MG, myocardial ischemia) rats, oral administration of QSKL, mean ± SD, n = 6
[8] = t1/2, sham group (SG) rats, oral administration of QSKL, mean ± SD, n = 6
[9] = rats, after oral dosing QSKL 8.0 g/kg

| Compound | distribution in rat plasma (quantifiable or not) [1] | AUC(0-t) [1, 3] [ng·h/mL] | AUC(0-t) [1, 4] [ng·h/mL] | AUC(0-inf) [1, 5] [ng·h/mL] | AUC(0-inf) [1, 6] [ng·h/mL] | Cmax [1, 5] [ng/mL] | Cmax [1, 6] [ng/mL] | MRT [1, 5] [h] | MRT [1, 6] [h] | Tmax [1, 5] [min] | Tmax [1, 6] [min] | half-life [1, 7] [min] | half-life [1, 8] [min] | also measured |
| --- | --- | --- | --- | --- | --- | --- | --- | --- | --- | --- | --- | --- | --- | --- |
| O=C(/C=C/c1ccc(O[C@@H]2O[C@H](CO)[C@@H](O)[C@H](O)[C@H]2O)cc1)c1ccc(O)cc1O [isoliquiritin] | quantifiable in most samples |  |  |  |  |  |  |  |  |  |  |  |  | AUC(0-t) (in vivo; [2]): 1.58 ± 0.493 ng·h/mL; AUC(0-t) (in vivo; sham group (SG) rats): 1.39 ± 0.36 ng·h/mL; AUC(0-inf) (in vivo; [2]): 1.86 ± 0.632 ng·h/mL; AUC(0-inf) (in vivo; sham group (SG) rats): 1.64 ± 0.474 ng·h/mL; Cmax (in vivo; [2]): 0.85 ± 0.761 ng/mL; Cmax (in vivo; sham group (SG) rats): 0.389 ± 0.167 ng/mL; MRT (in vivo; [2]): 10.2 ± 4.65 h; MRT (in vivo; sham group (SG) rats): 10.5 ± 3.13 h; Tmax (in vivo; [2]): 25.8 ± 21.6 min; Tmax (in vivo; sham group (SG) rats): 21.6 ± 18.6 min; half-life (in vivo; t1/2, model group (MG, myocardial ischemia) rats): 497 ± 204 min; half-life (in vivo; t1/2, sham group (SG) rats): 376 ± 58.6 min |
| CCN1C[C@]2(COC)[C@H](O)C[C@H](OC)[C@@]34[C@@H]5C[C@@]6(O)[C@H](OC(=O)c7ccccc7)[C@@H]5[C@@](OC(C)=O)([C@@H]([C@H](OC)[C@H]23)[C@@H]14)[C@@H](O)[C@@H]6OC [aconitine] | unquantifiable in most QSKL-treated samples |  |  |  |  |  |  |  |  |  |  |  |  |  |
| COC(=O)C1=CO[C@@H](O[C@@H]2O[C@H](CO)[C@@H](O)[C@H](O)[C@H]2O)[C@@H]2[C@H](C)O[C@@H](O)C[C@H]12 [morroniside] | quantifiable in most samples | 19.5 ± 3.53 | 16.5 ± 3.91 | 29.2 ± 4.1 | 24.9 ± 2.95 | 4.21 ± 3.41 | 2.04 ± 1.07 | 21.1 ± 8.23 | 25.1 ± 13.5 | 27.6 ± 15 | 22.2 ± 11.4 | 852 ± 347 | 948 ± 563 |  |
| COc1ccc(-c2coc3cc(O)ccc3c2=O)cc1 [formononetin] | quantifiable in most samples | 1.2 ± 0.482 | 0.966 ± 0.351 | 1.32 ± 0.472 | 1.22 ± 0.609 | 0.47 ± 0.291 | 0.243 ± 0.127 | 5.47 ± 2.56 | 7 ± 2.97 | 30.6 ± 27.6 | 36.6 ± 31.8 | 229 ± 113 | 282 ± 139 |  |
| O=C(/C=C/c1ccc(O)cc1)c1ccc(O)cc1O [isoliquiritigenin] |  | 1.56 ± 0.668 | 1.87 ± 1.21 | 1.71 ± 0.74 | 2.07 ± 1.31 | 0.401 ± 0.103 | 0.389 ± 0.137 | 8.14 ± 2.95 | 7.85 ± 0.6 | 22.2 ± 16.8 | 9 ± 7.8 | 281 ± 124 | 262 ± 82.2 | shape of plasma concentration-time profile [1, 9]: Multiple-peak profiles |
| Cc1coc2c1C(=O)C(=O)c1c-2ccc2c1CCCC2(C)C [tanshinone IIA] | quantifiable in most samples | 4.28 ± 0.678 | 3.18 ± 0.664 | 7.17 ± 3.08 | 4.77 ± 1.45 | 0.349 ± 0.089 | 0.376 ± 0.15 | 26.4 ± 14.9 | 20.9 ± 5.14 | 523 ± 482 | 40.2 ± 18 | 1080 ± 648 | 828 ± 243 | AUC(0-t) ([1]; AUC0→t, model (myocardial ischemia, LAD ligation) rats, single oral dose of 8.0 g/kg QSKL, mean ± SD, n = 6): 4.28 ± 0.678 ng·h/mL; AUC(0-t) ([1]; AUC0→t, sham rats, single oral dose of 8.0 g/kg QSKL, mean ± SD, n = 6): 3.18 ± 0.664 ng·h/mL; Tmax [1, 9]: 480 min |
| C=CC(C)(C)c1cc(/C=C/C(=O)c2ccc(O)cc2)c(OC)cc1O [licochalcone A] | unquantifiable in most QSKL-treated samples |  |  |  |  |  |  |  |  |  |  |  |  |  |
